# Data from patent US10774112B2, “Biomimetic peptide and biodegradable delivery platform for the treatment of angiogenesis- and lymphangiogenesis-dependent diseases” (THE JOHNS HOPKINS UNIVERSITY, priority 2013, dated 2020).
# Key:
# [1] = tested on: human umbilical vein endothelial cells (HUVEC); assay: Proliferation assay (WST-1), HUVEC; format: cell-based; conditions: FIG. 1
# Protocol: (§1) A colorimetric based proliferation assay using WST-1 (Roche, 11644807001) proliferation reagent was carried out using HREC cells, HUVEC cells, and the breast cancer cells MDA-MB-231, MCF-7, and SUM149. 2000 cells/well were plated in 96-well plates and allowed to adhere overnight. On the following day, the media was exchanged with fully supplemented media containing peptides or equivalent DMSO vehicle for the controls. Three days later, the media containing the peptides was replaced with serum-free EBM-2 media containing WST-1 reagent and the plates were incubated for four hours as per the manufacturer's recommendations. Changes in color, due to the formazan dye resulted from the cleavage of the tetrazolium salt WST-1 by the mitochondrial succinate-tetrazolium reductase, were read on a Victor V fluorescence plate reader (Perkin Elmer, Mass.) by measuring the absorbance at 450 nm. Dose response curves of percent live cells (in comparison to untreated cells, but incubated in complete media with 0.2% DMSO) were created. Assays were performed in at least two independent replicates and each replicate was performed using three experimental triplicates.
# [2] = tested on: human umbilical vein endothelial cells (HUVEC); assay: Adhesion assay (RT-CIM), HUVEC; format: cell-based; conditions: FIG. 1
# Protocol: Similar to the migration assays, the inhibition activity of the peptide in cellular adhesion was assessed using the RT-CIM technology. In this case, 25,000 cells/well were plated in 16 wells E-plates (Roche, Basel Switzerland) in the presence or absence of the peptide. The adhesion was monitored over time (3 hours) by measuring changes in the electrical impedance, which is a direct measure of the cells adhering on the electrodes. Assays were performed in at least two independent replicates and each replicate was performed using two experimental duplicates.
# [3] = tested on: MDA-MB-231 orthotopic tumors; assay: MDA-MB-231 orthotopic tumor xenografts in SCID mice; format: in vivo; conditions: 33 days, 20 mg of SP2043/kg, intraperitoneal injection, FIG. 9
# Protocol: Orthotopic breast tumors were initiated in SCID mice using human triple-negative breast cancer cells MDA-MB-231. 2×10^6 cells per 100 μL aliquot of single cell suspension were injected in the breast mammary fat pad. Tumors reached volumes of 75-100 mm^3 in approximately 14-21 days. Mice were randomized and arranged in groups (8 mice per group) with similar tumor volumes (no statistical difference among averages) and treatment was commenced. […] Tumors were measured every fourth day using calipers and the tumor volume was calculated using the formula V=ab^2/2, where “a” is the larger and “b” is the smaller diameter.
# [4] = tested on: hepatocyte growth factor (HGF) signaling; assay: HGF signaling in vitro in MEC; format: cell-based; conditions: FIG. 6
# [5] = tested on: hepatocyte growth factor (HGF) signaling; assay: HGF signaling in vitro in LEC; format: cell-based; conditions: FIG. 6
# [6] = tested on: triple-negative breast cancer cell line MDA-MB-231; assay: Proliferation assay (WST-1), MDA-MB-231; format: cell-based, human; conditions: in vitro; FIG. 7
# Protocol: as §1
# [7] = tested on: MDA-MB-231-luc tumors; assay: TCM-induced metastasis model; format: in vivo, mice
# Protocol: TCM-Induced Metastasis Model.
# Before tumor inoculation, athymic nude mice (female 5-6 weeks, 18-20 g) were treated with 50 μL TCM or SFM subcutaneously through the scruff for 2 weeks. After 2 weeks of TCM treatment, MDA-MB-231-luc-D3H2LN tumor xenografts were established in the same animals; the cells (2×10^6) were mixed with 50 μL complete media (RPMI-1640 supplemented with 10% FBS), and 50 μL Matrigel (High Concentrated, BD Biosciences) and injected into the upper inguinal mammary fat pad of the animals under anesthesia (50 mg/kg ketamine+5 mg/kg acepromazine in PBS, 50 μL/animal, intraperitoneally dosed). The primary tumor size was measured by using a caliper, and the volume w calculated, using the formula: V=0.52×a×b^2, where ‘a’ is the long axis, and ‘b’ is the short axis of the tumor. Animals were also imaged every week to track anterior tumor metastases, using the IVIS Xenogen 200 optical imager (Xenogen, Alameda, Calif.) after intraperitoneal injection of d-luciferin (Caliper 150 mg/kg). 100 μL D-luciferin (twice diluted) was intraperitoneally dosed on both sides of the abdomen (total 200 μL/animals) to prevent i.p. injection failure. […] Luciferase-mediated photon flux was quantified by using Living Image® 3D Analysis (Xenogen), and the average photon flux was obtained from eight lungs, eight brains, and 14-16 LNs as described before. […]
sequence,measurement,setting,value
LRRFSTAPFAFIDINDVINF (Artificial sequence based on human Collagen Type IV protein) [SP2043],proliferation of HUVEC,[1],inhibit
same,adhesion of HUVEC,[2],inhibit
same,inhibition of tumor growth,[3],about 82%
same,HGF signaling in MEC,[4],inhibit
same,HGF signaling in LEC,[5],inhibit
same,proliferation of MDA-MB-231,[6],inhibit
same,"metastasis of MDA-MB-231-luc tumors to lymph nodes, vimentin antibody staining for human cells",[7]; FIG. 12B,inhibited
same,"metastasis of MDA-MB-231-luc tumors to multiple organs, photon flux from tumor cells","[7]; tumor-conditioned media pre-treated metastasis model, FIG. 12A",inhibited
